Measured values as given in publication PMC12656566, “Toxicokinetic Characterization of MDM Hydantoin via Stable Metabolite DMH: Population Modeling for Predicting Dermal Formaldehyde Formation” (Toxics, 2025).
Entries after “also recorded” stand apart in the source; their conditions may differ. Where two headings read alike, the source gives them in different places.

Test: Toxicokinetics after transdermal application of gel containing 2% MDMH or DMH (plasma, non-compartmental analysis)
Type: in vivo
Settings: rats; for bioavailability: plasma, DMH, TD application of 2% DMH gel (10.7 mg/kg) vs IV, read-out: Absolute bioavailability
Method: An API 4000 LC-MS/MS system (Applied Biosystems/MDS Sciex, Foster City, CA, USA) coupled with an Agilent 1100 HPLC (Agilent Technologies, Santa Clara, CA, USA) was used for determination of MDMH and DMH in rat plasma. The analytes were separated on a Synergi Fusion-RP 80 Å (150 × 2.0 mm, i.d., 4 µm;) with a Security Guard™ Cartridge AJ0-7556 (Phenomenex, Torrance, CA, USA), and the column oven temperature was maintained at 30 °C. An isocratic solvent system of distilled water and methanol (80:20, v/v) was used with a runtime of 7 min. The injection volume was 10 µL, and the flow rate was maintained at 0.2 mL/min.
For plasma sample preparation, formic acid was immediately added to blood samples upon collection to achieve a final concentration of 0.5% to prevent potential enzymatic degradation of MDMH, and all sample preparation procedures were conducted at ≤4 °C to minimize temperature-dependent decomposition of the analytes. For analysis, 50 μL of internal standard solution and 100 μL of methanol containing 0.5% formic acid (as precipitating solvent) were added to 50 μL of plasma, followed by vortex-mixing for 2 min. After centrifugation at 21,206× g for 10 min, 40 μL of supernatant was mixed with 160 μL of 0.5% formic acid in distilled water, and 10 μL was injected into the LC-MS/MS system.
All animal care and experiments were conducted to evaluate the toxicokinetics of MDMH and DMH according to the Guidelines for the Care and Use of Animal approved by the Ethics Committee for Treatment of Laboratory Animal at Daegu Catholic University (CUD-2019-020). To evaluate the toxicokinetics of MDMH and DMH in rats after intravenous injection (IV) or transdermal application (TD). Male Sprague-Dawley rats (9 weeks, body weight 260–310 g) (Hyochang Science Co., Daegu, Republic of Korea) were kept in plastic cages and fed regularly with water and feed. Rats were acclimated for a minimum of 1 week prior to the experiment under conditions keeping a 12 h light-dark cycle, a temperature of 23 ± 2 °C, and a relative humidity of 50 ± 10%. The rats were cannulated using polyethylene tubing (0.58 mm i.d., 0.96 mm o.d., Natsume, Tokyo, Japan) in the jugular vein after intraperitoneal injection at a dose of 0.9 mL/kg of Zoletil 50 (Virbac, Carros, France).
The transdermal application study was performed according to the “Organization for Economic Cooperation and Development guidelines for the in vivo skin absorption test”. Rats were anesthetized using inhaled isoflurane, and the back area of 6 × 6 cm^2 was removed using an electric clipper (808, Daito Electric Co., Osaka, Japan) 12 h before administration. The clipped skin of the rat was wiped with acetone without damaging the stratum corneum, and a resting period was allowed just before the study.
For TD application, a gel corresponding to approximately 5 mg/cm^2 was applied to an area of 5 × 5 cm^2 among the depilated areas. The doses of MDMH and DMH for the transdermal application study were 10.9 and 10.7 mg/kg on average, respectively. Although the regulatory limit for MDMH in cosmetics is 0.2%, a higher concentration (2%) was employed to ensure adequate systemic exposure and plasma concentrations suitable for accurate toxicokinetic characterization of these rapidly metabolized compounds. To prevent loss of the compounds due to volatilization and grooming, the application on the back site was adhered with gauze and pads. Blood samples were collected via the jugular vein in the MDMH application group at 0, 30 min, and 1, 2, 3, 4, 5, 6, 7, 8, 10, 12, and 24 h (13 points/head), and in the DMH application group at 0, 30 min, and 1, 2, 3, 4, 6, 8, 10, 12, and 24 h (11 points/head). Plasma samples were harvested by centrifugation of obtained blood for 10 min at 4000× g, and stored at −20 °C until analysis.
The toxicokinetic parameters were calculated by standard non-compartmental analysis using the non-linear least squares regression program Phoenix™ WinNonlin® 6.1 (Pharsight, Cary, NC, USA). […]

[1] = male, Sprague-Dawley, rat, topical or ocular, DMH in plasma after TD application of gel containing 2% DMH (10.7 mg/kg), n = 5

| Structure (SMILES) | bioavailability (male, Sprague-Dawley, rat, topical or ocular, n = 5) [%] | bioavailability (male, Sprague-Dawley, rat, topical, n = 5) [%] | AUC(0-t) [1] [ng·h/mL] | Cmax [1] [ng/mL] | Tmax [1] [h] | half-life [1] [h] | AUC(0-inf) (male, Sprague-Dawley, rat, topical or ocular, DMH in plasma after TD application of gel containing 2% DMH (10.7 mg/kg), n = 5, read-out: AUCinfinity) [ng·h/mL] | parent compound plasma concentrations after transdermal application (MDMH in plasma after MDMH gel TD application, throughout the sampling period) | Fm to DMH (fraction metabolized) (ratio of DMH exposure after MDMH gel TD (10.9 mg/kg) to that after DMH gel TD) [%] |
| --- | --- | --- | --- | --- | --- | --- | --- | --- | --- |
| CC1(C)NC(=O)NC1=O [DMH, 5,5-dimethylhydantoin] | 101 ± 18 | 101 ± 18 | 40510 ± 50 | 6460 ± 1690 | 2 ± 1.73 | 5.36 ± 2.18 | 51500 ± 5530 |  |  |
| CC1(C)C(=O)NC(=O)N1CO [MDMH, 1-(Hydroxymethyl)-5,5-dimethylhydantoin] |  |  |  |  |  |  |  | below the quantification limit; also recorded: below quantification limits | 89.78 ± 24.15 |
